Common to all, as to type: biochemical
The target in one test is T1, FGFR1 V561M (Homo sapiens, UniProt P11362, V561M).
T1 construct: purchased Signalchem F04-13G
Description: Assay I: inhibitory activity against FGFR mutants (HTRF KinEASE-TK). The following applies: ATP 5 μM, substrate TK 1 μM. As to the method: (§1) Assay I: Determination of Inhibitory Activity Against FGFR Mutants
(§2) 1. Reagents and Equipment
(§3) 2.1 Preparation of 1× Kinase Reaction Buffer:
(§4) 1× Kinase reaction buffer was formulated with 1× volume of 5× kinase reaction buffer and 4× volume of water; 5 mM MgCl2; and 1 mM DTT.
(§5) 2.3 Screening of Compounds:
(§6) 1. Diluting a compound 4-fold in a dilution plate with DMSO, with a starting compound concentration of 2 mM.
(§7) 2. Diluting the compound 40-fold into 1× kinase reaction buffer and shaking it on a shaker for 20 minutes.
(§8) 5. Adding 1 μl of the compound diluted in buffer to each well, sealing the plate with a sealing membrane and centrifuging the plate at 1000 g for 30 seconds and leaving it at room temperature for 10 minutes.
(§9) 6. Formulating 2.5×TK-substrate-biotin and ATP mixture with 1× enzyme reaction buffer and adding 2 μl of K-substrate-biotin/ATP mixture to the reaction plate.
(§10) 7. Sealing the plate with a sealing membrane and centrifuging the plate at 1000 g for 30 seconds and allowing it to react at room temperature for 50 minutes.
(§11) 8. Formulating 4× Sa-XL 665 (250 nM) with HTRF assay buffer.
(§12) 9. Adding 5 μl Sa-XL 665 and 5 μl TK-Antibody-Cryptate to each well, centrifuging it at 1000 g for 30 seconds, and allowing it to react for 1 hour at room temperature.
(§13) 10. Reading fluorescence signals at 615 nm (Cryptate) and 665 nm (XL665) with Biotek.
(§14) 3.1 Calculation of the ratio for each well: the ratio was calculated as 665/615 nm.
(§15) 3.3 Calculation of IC50 and plotting of inhibition curves for the compounds.
(§16) The IC50 (half inhibition concentration) of a compound was obtained using the following non-linear fitting equation, wherein data analysis was performed using Graphpad 6.0 software.
(§17) Y=Bottom+(Top−Bottom)/(1+10^((Log IC50−X)*Hill Slope)) • X: log value of compound concentration; and Y: inhibition rate (% inh)
(§18) 3.4 Validation of Results
(§19) Data were exported from Envision and analyzed manually. The ratios were converted to inhibition rates and IC50 was calculated by Prism GraphPad 6.0 from the inhibition rates. IC50 was calculated again by the ratios to verify accuracy of the results.
For orientation: In TR-FRET formats the signal depends on donor and acceptor labels being close together.

Another test concerns the target T2, FGFR2 V564F (Homo sapiens, UniProt P21802, V564F).
T2 construct: purchased Signalchem F05-12FG
The test is described as above. The following applies: ATP 10 μM, substrate TK 1 μM. As to the method:
as §1, §2, §3, §4, §5, §6, §7, §8, §9, §10, §11, §12, §13, §14, §15, §16, §17, §18, §19

Another test deals with T3, FGFR3 V555M (Homo sapiens, UniProt P22607, V555M).
T3 construct: purchased Signalchem F06-12GG
T3 sequence (P22607 397-806 V555M limits assumed): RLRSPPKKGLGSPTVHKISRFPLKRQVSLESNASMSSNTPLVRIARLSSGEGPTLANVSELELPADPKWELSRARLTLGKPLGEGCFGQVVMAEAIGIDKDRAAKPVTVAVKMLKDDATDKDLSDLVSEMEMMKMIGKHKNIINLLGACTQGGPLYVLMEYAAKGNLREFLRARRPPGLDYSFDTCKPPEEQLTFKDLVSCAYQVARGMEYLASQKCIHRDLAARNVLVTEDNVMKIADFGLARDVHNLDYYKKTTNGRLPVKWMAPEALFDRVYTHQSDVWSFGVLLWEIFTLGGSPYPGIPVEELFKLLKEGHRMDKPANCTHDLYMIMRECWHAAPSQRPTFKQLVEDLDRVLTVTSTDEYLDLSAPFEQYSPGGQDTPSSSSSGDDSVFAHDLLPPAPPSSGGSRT
The description is as above. The following applies: ATP 20 μM, substrate TK 1 μM. On the procedure:
as §1, §2, §3, §4, §5, §6, §7, §8, §9, §10, §11, §12, §13, §14, §15, §16, §17, §18, §19

The target of another test is T4, VEGFR2 (Homo sapiens, UniProt P35968).
T4 construct: purchased Carna 08-191
T4 sequence (P35968 20-1356): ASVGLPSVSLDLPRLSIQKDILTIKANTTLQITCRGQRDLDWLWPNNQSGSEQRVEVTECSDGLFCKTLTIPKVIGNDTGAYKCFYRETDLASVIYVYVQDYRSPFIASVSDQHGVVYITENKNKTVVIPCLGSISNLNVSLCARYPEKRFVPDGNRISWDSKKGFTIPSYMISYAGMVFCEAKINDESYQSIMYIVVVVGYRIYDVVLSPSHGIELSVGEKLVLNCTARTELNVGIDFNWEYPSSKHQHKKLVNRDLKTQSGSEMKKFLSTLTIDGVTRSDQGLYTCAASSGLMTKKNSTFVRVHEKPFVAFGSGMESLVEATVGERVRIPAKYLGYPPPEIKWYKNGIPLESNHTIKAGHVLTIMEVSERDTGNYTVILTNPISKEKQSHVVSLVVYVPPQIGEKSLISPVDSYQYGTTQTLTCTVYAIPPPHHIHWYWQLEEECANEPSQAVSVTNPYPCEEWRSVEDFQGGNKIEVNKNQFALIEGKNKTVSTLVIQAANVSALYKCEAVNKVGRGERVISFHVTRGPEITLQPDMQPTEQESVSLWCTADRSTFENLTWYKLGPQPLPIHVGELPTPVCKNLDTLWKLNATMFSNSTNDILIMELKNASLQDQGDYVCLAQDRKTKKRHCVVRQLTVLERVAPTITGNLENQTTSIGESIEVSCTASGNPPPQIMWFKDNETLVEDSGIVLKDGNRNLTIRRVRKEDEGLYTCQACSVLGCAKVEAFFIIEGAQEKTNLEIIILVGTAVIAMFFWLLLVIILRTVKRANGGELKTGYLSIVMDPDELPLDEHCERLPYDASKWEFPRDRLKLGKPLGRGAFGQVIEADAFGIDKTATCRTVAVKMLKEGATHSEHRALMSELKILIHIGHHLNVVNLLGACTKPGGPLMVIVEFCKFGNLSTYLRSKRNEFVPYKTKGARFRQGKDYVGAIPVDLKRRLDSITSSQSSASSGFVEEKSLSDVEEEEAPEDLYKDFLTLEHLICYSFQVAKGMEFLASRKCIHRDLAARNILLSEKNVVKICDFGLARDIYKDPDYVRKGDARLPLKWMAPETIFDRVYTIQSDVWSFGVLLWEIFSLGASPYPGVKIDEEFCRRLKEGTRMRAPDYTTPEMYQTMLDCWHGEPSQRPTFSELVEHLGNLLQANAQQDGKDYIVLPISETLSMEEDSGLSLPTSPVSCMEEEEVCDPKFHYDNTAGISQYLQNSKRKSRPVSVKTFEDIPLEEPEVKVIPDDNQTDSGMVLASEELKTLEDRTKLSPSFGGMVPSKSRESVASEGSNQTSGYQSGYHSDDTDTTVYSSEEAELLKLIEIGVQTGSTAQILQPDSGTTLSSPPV
The test is described as follows: Assay I: VEGFR2 kinase inhibition (HTRF KinEASE-TK). The following applies: ATP 5 μM, substrate TK 1 μM. As to the method:
as §1, §2, §3, §4, §5, §6, §7
3. Formulating 2×FGFR1 V561M/FGFR2 V564F/FGFR3 K650E/VEGFR2 with 1× of enzyme reaction buffer.
4. Adding 2 μl FGFR1 V561M/FGFR2 V564F/FGFR3 K650E/VEGFR2 kinase (formulated in step 3) to each well of the reaction plate.
as §8, §9, §10, §11, §12, §13, §14, §15, §16, §17, §18, §19
Positive control IC50 was within 3 times of the average value

The record followed here is patent US20230374025A1, “FGFR INHIBITOR COMPOUND AND USE THEREOF” (SHENZHEN KANGSU PHARMACEUTICAL TECHNOLOGY CO., LTD., priority 2021, published 2023).

One may read the IC50 as the point on the concentration scale where inhibition reaches its midpoint. A low value points to higher potency.

T1 sequence (P11362 22-822 V561M): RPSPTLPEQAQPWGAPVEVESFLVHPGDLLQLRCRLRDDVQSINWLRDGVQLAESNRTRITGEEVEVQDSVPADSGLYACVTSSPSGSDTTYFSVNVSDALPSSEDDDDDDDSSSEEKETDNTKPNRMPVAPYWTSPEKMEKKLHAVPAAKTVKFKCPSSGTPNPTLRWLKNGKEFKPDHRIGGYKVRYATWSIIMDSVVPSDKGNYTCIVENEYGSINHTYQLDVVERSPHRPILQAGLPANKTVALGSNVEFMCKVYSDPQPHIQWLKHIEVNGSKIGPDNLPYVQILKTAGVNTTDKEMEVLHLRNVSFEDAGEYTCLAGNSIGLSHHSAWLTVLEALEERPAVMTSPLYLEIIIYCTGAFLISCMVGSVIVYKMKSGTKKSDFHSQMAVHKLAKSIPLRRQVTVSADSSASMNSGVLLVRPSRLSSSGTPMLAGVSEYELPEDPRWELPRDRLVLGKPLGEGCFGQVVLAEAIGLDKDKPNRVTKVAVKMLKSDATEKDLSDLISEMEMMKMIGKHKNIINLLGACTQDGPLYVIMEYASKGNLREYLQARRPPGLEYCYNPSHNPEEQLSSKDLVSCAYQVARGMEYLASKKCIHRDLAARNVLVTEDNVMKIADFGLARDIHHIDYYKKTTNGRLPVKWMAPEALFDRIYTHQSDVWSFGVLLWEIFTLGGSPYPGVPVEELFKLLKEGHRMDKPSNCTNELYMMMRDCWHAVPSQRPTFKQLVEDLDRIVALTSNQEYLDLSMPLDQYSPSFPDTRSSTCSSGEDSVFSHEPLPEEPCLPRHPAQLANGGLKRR
T2 sequence (P21802 22-821 V564F): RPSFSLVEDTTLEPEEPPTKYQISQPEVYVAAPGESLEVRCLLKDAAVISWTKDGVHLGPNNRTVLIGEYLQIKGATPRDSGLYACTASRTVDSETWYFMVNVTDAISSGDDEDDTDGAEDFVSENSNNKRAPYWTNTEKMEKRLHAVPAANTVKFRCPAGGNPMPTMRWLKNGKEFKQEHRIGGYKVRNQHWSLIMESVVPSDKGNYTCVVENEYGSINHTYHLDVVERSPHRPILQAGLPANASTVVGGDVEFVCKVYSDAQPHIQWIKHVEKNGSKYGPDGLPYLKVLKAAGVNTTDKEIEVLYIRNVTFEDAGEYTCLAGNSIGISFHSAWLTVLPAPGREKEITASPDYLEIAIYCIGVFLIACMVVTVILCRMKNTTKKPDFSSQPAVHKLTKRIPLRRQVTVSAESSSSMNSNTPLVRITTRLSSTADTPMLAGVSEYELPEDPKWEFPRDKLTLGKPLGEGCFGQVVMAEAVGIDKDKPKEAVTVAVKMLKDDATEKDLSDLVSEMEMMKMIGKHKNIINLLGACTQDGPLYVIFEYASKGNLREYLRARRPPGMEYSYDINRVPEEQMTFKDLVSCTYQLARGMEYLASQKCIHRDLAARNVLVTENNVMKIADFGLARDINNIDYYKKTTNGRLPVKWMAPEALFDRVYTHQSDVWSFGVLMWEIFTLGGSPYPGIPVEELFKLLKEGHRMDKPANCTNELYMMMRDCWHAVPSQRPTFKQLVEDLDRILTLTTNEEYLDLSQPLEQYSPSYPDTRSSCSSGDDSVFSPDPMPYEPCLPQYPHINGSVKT

As to `CC(Oc1ccc2[nH]nc(-c3nc4c([nH]3)CN(CC3CCN(C)CC3)C4)c2c1)c1c(Cl)cncc1Cl` (centres unmarked) [Compound 2, 5-(1-(3,5-dichloropyridin-4-yl)ethoxy)-3-(5-((1-methylpiperidin-4-yl)methyl)-1,4,5,6-tetrahydropyrrolo[3,4-d]imidazol-2-yl)-1H-indazole], the concentration for half-maximal inhibition (IC50) on FGFR1 V561M is 0.21 nM; against FGFR2 V564F, 0.1 nM; on FGFR3 V555M it was 0.05 nM; against VEGFR2, 2.6 nM.

As for `CC(Oc1ccc2[nH]nc(-c3nc4c([nH]3)CN(C3CCN(C)CC3)C4)c2c1)c1c(Cl)cncc1Cl` (centres unmarked) [Compound 3, 5-(1-(3,5-dichloropyridin-4-yl)ethoxy)-3-(5-(1-methylpiperidin-4-yl)-1,4,5,6-tetrahydropyrrolo[3,4-d]imidazol-2-yl)-1H-indazole], the half-maximal inhibitory concentration (IC50) against FGFR1 V561M came to 0.65 nM; against FGFR2 V564F it was 0.25 nM; against FGFR3 V555M, 0.67 nM; at VEGFR2 it was 5.4 nM.

For the molecule `CC(Oc1ccc2[nH]nc(-c3nc4c([nH]3)CN(C3CCN(C)CC3)CC4)c2c1)c1c(Cl)cncc1Cl` (centres unmarked) [Compound 4, 2-(5-(1-(3,5-dichloropyridin-4-yl)ethoxy)-1H-indazol-3-yl)-5-(1-methylpiperidin-4-yl)-4,5,6,7-tetrahydro-3H-imidazo[4,5-c]pyridine], the 50% inhibitory concentration (IC50) on FGFR1 V561M is 0.31 nM; against FGFR2 V564F, 0.19 nM; against FGFR3 V555M, 0.16 nM; against VEGFR2, 17.6 nM.

Take `CC(Oc1ccc2[nH]nc(-c3nc4c([nH]3)CN(C(=O)C3CCN(C)CC3)C4)c2c1)c1c(Cl)cncc1Cl` (centres unmarked) [Compound 6, (2-(5-(1-(3,5-dichloropyridin-4-yl)ethoxy)-1H-indazol-3-yl)-4,6-dihydropyrrolo[3,4-d]imidazol-5(1H)-yl)(1-methylpiperidin-4-yl)ketone]: the IC50 amounted to 0.38 nM against FGFR1 V561M, 0.11 nM on FGFR2 V564F, 0.12 nM against FGFR3 V555M and 3.1 nM against VEGFR2.

As to `CC(Oc1ccc2[nH]nc(-c3nc4c([nH]3)CN(S(=O)(=O)c3cccnc3)C4)c2c1)c1c(Cl)cncc1Cl` (centres unmarked) [Compound 7, 5-(1-(3,5-dichloropyridin-4-yl)ethoxy)-3-(5-(pyridin-3-ylsulfonyl)-1,4,5,6-tetrahydropyrrolo[3,4-d]imidazol-2-yl)-1H-indazole], the IC50 at FGFR1 V561M worked out at 1.6 nM; on FGFR2 V564F it was 3.1 nM; at FGFR3 V555M, 4 nM; against VEGFR2, 42.9 nM.

For the molecule `CC(Oc1ccc2[nH]nc(-c3nc4c([nH]3)CN(C(=O)[C@@H]3CCNC3)C4)c2c1)c1c(Cl)cncc1Cl` (stereo partly drawn) [Compound 9, (2-(5-(1-(3,5-dichloropyridin-4-yl)ethoxy)-1H-indazol-3-yl)-4,6-dihydropyrrolo[3,4-d]imidazol-5(1H)-yl)((R)-pyrrolidin-3-yl)ketone], the 50% inhibitory concentration (IC50) stood at 0.41 nM against FGFR1 V561M, 0.27 nM against FGFR2 V564F, 0.16 nM against FGFR3 V555M and 5.6 nM on VEGFR2.

Turning to `CC(Oc1ccc2[nH]nc(-c3nc4c([nH]3)CN(CCN3CCOCC3)C4)c2c1)c1c(Cl)cncc1Cl` (centres unmarked) [Compound 12], the concentration for half-maximal inhibition (IC50) against FGFR1 V561M is 1.2 nM; on FGFR2 V564F it was 0.29 nM; against FGFR3 V555M, 0.21 nM; at VEGFR2, 14.2 nM.

`CC(Oc1ccc2[nH]nc(-c3nc4c([nH]3)CN(C(=O)CN3CCOCC3)C4)c2c1)c1c(Cl)cncc1Cl` (centres unmarked) [Compound 13, 1-(2-(5-(1-(3,5-dichloropyridin-4-yl)ethoxy)-1H-indazol-3-yl)-4,6-dihydropyrrolo[3,4-d]imidazol-5(1H)-yl)-2-morpholinoethan-1-one]: the half-maximal inhibitory concentration (IC50) was determined as 0.46 nM on FGFR1 V561M, 0.31 nM against FGFR2 V564F, 0.22 nM at FGFR3 V555M and 5.5 nM at VEGFR2.

For the molecule `CC(Oc1ccc2[nH]nc(-c3nc4c([nH]3)CN(C(=O)CN(C)C)C4)c2c1)c1c(Cl)cncc1Cl` (centres unmarked) [Compound 14, 1-(2-(5-(1-(3,5-dichloropyridin-4-yl)ethoxy)-1H-indazol-3-yl)-4,6-dihydropyrrolo[3,4-d]imidazol-5(1H)-yl)-2-(dimethylamino)ethan-1-one], the IC50 at FGFR1 V561M was 0.11 nM; against FGFR2 V564F, 0.09 nM; against FGFR3 V555M, 0.03 nM; against VEGFR2, 6.1 nM.

For `CC(Oc1ccc2[nH]nc(-c3nc4c([nH]3)CN(CCO)C4)c2c1)c1c(Cl)cncc1Cl` (centres unmarked) [Compound 15, 2-(2-(5-(1-(3,5-dichloropyridin-4-yl)ethoxy)-1H-indazol-3-yl)-4,6-dihydropyrrolo[3,4-d]imidazol-5(1H)-yl)ethan-1-ol], the IC50 against FGFR1 V561M was determined as 3.6 nM; on FGFR2 V564F, 2 nM; at FGFR3 V555M, 2 nM; against VEGFR2, 67 nM.

In the case of `CC(Oc1ccc2[nH]nc(-c3nc4c([nH]3)CN(S(=O)(=O)c3cnn(C)c3)C4)c2c1)c1c(Cl)cncc1Cl` (centres unmarked) [Compound 18, 5-(1-(3,5-dichloropyridin-4-yl)ethoxy)-3-(5-((1-methyl-1H-pyrazol-4-yl)sulfonyl)-1,4,5,6-tetrahydropyrrolo[3,4-d]imidazol-2-yl)-1H-indazole], the half-inhibitory concentration (IC50) was 2.2 nM against FGFR1 V561M, 1.2 nM against FGFR2 V564F and 19.6 nM against VEGFR2.

On to `CC(Oc1ccc2[nH]nc(-c3nc4c([nH]3)CN(S(=O)(=O)c3ccn(C)n3)C4)c2c1)c1c(Cl)cncc1Cl` (centres unmarked) [Compound 20, 5-(1-(3,5-dichloropyridin-4-yl)ethoxy)-3-(5-((1-methyl-1H-pyrazol-3-yl)sulfonyl)-1,4,5,6-tetrahydropyrrolo[3,4-d]imidazol-2-yl)-1H-indazole], for which the IC50 at FGFR1 V561M worked out at 1.8 nM; against FGFR2 V564F, 1.7 nM; against VEGFR2 it was 13.3 nM.

As for `C[C@@H](Oc1ccc2[nH]nc(-c3nc4c([nH]3)CN(C3CCN(S(C)(=O)=O)C3)C4)c2c1)c1c(Cl)cncc1Cl` (stereo partly drawn) [Compound 39, 5-((R)-1-(3,5-Dichloropyridin-4-yl)ethoxy)-3-(5-(1-(methylsulfonyl)pyrrolidin-3-yl)-1,4,5,6-tetrahydropyrrolo[3,4-d]imidazol-2-yl)-1H-indazole], the half-inhibitory concentration (IC50) at FGFR2 V564F is 1.3 nM; at FGFR3 V555M, 1.4 nM; against VEGFR2 it was 60.5 nM.

As for `C[C@@H](Oc1ccc2[nH]nc(-c3nc4c([nH]3)CN(C(=O)CN3CCC(F)C3)C4)c2c1)c1c(Cl)cncc1Cl` (stereo partly drawn) [Compound 48, 1-(2-(5-((R)-1-(3,5-Dichloropyridin-4-yl)ethoxy)-1H-indazol-3-yl)-4,6-dihydropyrrolo[3,4-d]imidazol-5(1H)-yl)-2-(3-fluoropyrrolidin-1-yl)ethan-1-one], the concentration for half-maximal inhibition (IC50) was 0.084 nM against FGFR2 V564F, 0.33 nM against FGFR3 V555M and 11.1 nM against VEGFR2.

Regarding `C[C@@H](Oc1ccc2[nH]nc(-c3nc4c([nH]3)CN(C(=O)CN3CCC(C#N)C3)C4)c2c1)c1c(Cl)cncc1Cl` (stereo partly drawn) [Compound 49, 1-(2-(2-(5-((R)-1-(3,5-dichloropyridin-4-yl)ethoxy)-1H-indazol-3-yl)-4,6-dihydropyrrolo[3,4-d]imidazol-5(1H)-yl)-2-oxoethyl)pyrrolidine-3-carbonitrile], the values for the concentration for half-maximal inhibition (IC50) against FGFR2 V564F, against FGFR3 V555M and at VEGFR2 were 0.017 nM, 0.19 nM and 6.7 nM, respectively.

For `CCN1CCN(c2ccc(Nc3cc(N(C)C(=O)Nc4c(Cl)c(OC)cc(OC)c4Cl)ncn3)cc2)CC1` [Infigratinib, reference compound], the half-maximal inhibitory concentration (IC50) against VEGFR2 was found to be 99 nM. This counts as double-digit nanomolar.
